The text below walks through data of ChEMBL document CHEMBL1154985, “Discovery of a novel series of potent S1P1 agonists” (Bioorg Med Chem Lett, 2010).

Values after ≈ are worked out from the molar mass of the structure shown. Active and inactive are the calls of the source. No cut-off for these calls is given here. Where only a bound is given, the exact number is not on record here.

The target of data set [1] is T1, Sphingosine 1-phosphate receptor 1 (Homo sapiens, UniProt P21453). Kind of data set: Agonist activity at S1P1 receptor expressed in CHO cells after 60 mins by [35S]-GTPgammaS binding assay. Type of data set: functional, cell-based.
The target in data set [2] is Sphingosine 1-phosphate receptor 3 (Homo sapiens, UniProt Q99500). Kind of data set: Agonist activity at S1P3 receptor expressed in CHO cells after 60 mins by [35S]-GTPgammaS binding assay. It counts as functional, cell-based. On the technique in general: GTPγS is a poorly hydrolysed GTP analogue; its binding reports G protein activation.
Data set [3] concerns the target Sphingosine 1-phosphate receptor 5 (Homo sapiens, UniProt Q9H228). Kind of data set: Agonist activity at S1P5 receptor expressed in CHO cells after 60 mins by [35S]-GTPgammaS binding assay. Type of data set: functional, cell-based.
Data set [4] in a line: Lipophilicity, log P of the compound. It counts as physicochemical. Particulars: octanol/water.
A short description of data set [5]: Solubility in PBS by nephelometry. Type of data set: physicochemical.
Data set [6] is described as follows: Intrinsic clearance in human liver microsomes at 3 uM by LC/MS-MS analysis. Type of data set: ADME, Microsome.
A short description of data set [7]: Intrinsic clearance in rat liver microsomes at 3 uM by LC/MS-MS analysis. Type of data set: ADME, Microsome. Background: Microsomes from liver hold many membrane-bound enzymes, among them those of drug oxidation.
In data set [8] the test system is Mus musculus. Kind of data set: Reduction of S1P1-mediated lymphopenia in mouse assessed as blood lymphocyte depletion at 30 mg/kg, po after 4 hrs. On the set-up: scale not given: the % may be the effect or the level left. Type of data set: functional.
In data set [9] the test system is Mus musculus. The data set can be described thus: Reduction of lymphopenia in mouse assessed as effect on erythrocytes at 30 mg/kg, po after 4 hrs. It counts as functional, organism-based. On the set-up: dose 30 mg/kg.
The test system of data set [10] is Mus musculus. The data set can be described thus: Reduction of lymphopenia in mouse assessed as effect on platelets at 30 mg/kg, po after 4 hrs. It counts as functional, organism-based. On the set-up: dose 30 mg/kg.
A short description of data set [11]: Apparent permeability across human Caco-2 cells by LC/MS-MS analysis. Type of data set: ADME, cell-based. Background: Caco-2 cells form a polarised layer with tight junctions and transporters.
Data set [12] has as its target T1, Sphingosine 1-phosphate receptor 1. Kind of data set: Agonist activity at S1P1 receptor expressed in human U20S cells assessed as receptor internalization by green fluorescent protein reporter gene assay. Type of data set: functional, cell-based, U2OS.
Data set [13] can be described thus: Clearance in mouse. Type of data set: ADME, organism-based. The following applies: in vivo.
The nature of data set [14]: Lipophilicity, log D at pH 7.4. Type of data set: physicochemical. The following applies: buffer.

Chain of Sphingosine 1-phosphate receptor 3 (Q99500 whole entry): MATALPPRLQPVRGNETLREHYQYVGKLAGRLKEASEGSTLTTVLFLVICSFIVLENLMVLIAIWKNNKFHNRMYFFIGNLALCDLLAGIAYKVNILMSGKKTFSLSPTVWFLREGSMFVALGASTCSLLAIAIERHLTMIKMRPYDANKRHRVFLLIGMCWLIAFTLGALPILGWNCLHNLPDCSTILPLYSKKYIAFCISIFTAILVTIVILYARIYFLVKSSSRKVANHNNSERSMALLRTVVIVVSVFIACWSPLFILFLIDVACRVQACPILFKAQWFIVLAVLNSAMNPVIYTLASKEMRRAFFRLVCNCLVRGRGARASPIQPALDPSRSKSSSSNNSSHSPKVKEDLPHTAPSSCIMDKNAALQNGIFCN
T1 sequence (P21453 whole entry): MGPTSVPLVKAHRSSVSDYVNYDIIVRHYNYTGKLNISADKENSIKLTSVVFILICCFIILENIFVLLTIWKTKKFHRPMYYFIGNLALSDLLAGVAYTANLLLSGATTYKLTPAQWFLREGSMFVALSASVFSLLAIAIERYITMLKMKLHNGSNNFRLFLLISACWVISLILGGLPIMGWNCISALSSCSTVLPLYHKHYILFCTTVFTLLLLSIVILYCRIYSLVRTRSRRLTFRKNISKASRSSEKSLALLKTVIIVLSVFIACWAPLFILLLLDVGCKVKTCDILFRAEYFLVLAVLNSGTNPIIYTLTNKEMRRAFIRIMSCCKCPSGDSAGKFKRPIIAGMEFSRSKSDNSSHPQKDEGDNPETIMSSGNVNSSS
Chain of Sphingosine 1-phosphate receptor 5 (Q9H228 whole entry): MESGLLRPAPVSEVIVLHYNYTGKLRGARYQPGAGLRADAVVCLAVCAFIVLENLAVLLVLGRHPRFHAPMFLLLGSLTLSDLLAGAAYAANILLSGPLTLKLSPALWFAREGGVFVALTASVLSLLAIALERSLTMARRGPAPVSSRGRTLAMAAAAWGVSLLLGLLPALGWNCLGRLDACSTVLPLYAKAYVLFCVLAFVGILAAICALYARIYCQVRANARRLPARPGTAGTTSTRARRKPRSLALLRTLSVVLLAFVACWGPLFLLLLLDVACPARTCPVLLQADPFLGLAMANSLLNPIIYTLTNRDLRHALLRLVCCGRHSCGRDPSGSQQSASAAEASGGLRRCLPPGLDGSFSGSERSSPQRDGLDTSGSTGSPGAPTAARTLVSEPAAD

For orientation: EC50 means the concentration that produces a half-maximal response. For `CC(=O)Nc1ccc(NC(=O)c2cc(NC3CCCCC3)ncn2)cc1`, the EC50 in data set [1] is greater than 20 µM.
By logP is commonly meant the decadic logarithm of the partition coefficient of the neutral form, usually between octanol and water. As a reminder, the kinetic solubility is solubility judged after dilution from a stock solution rather than from solid. In general, microsomal CLint refers to a measure of how fast metabolising enzymes remove a compound, apart from limits set by blood flow. With `Cc1cc(O)ccc1NC(=O)c1cc(N(CC2CC2)C2CCCCC2)ncn1`, the EC50 in data set [2] was greater than 30 µM; in data set [3] it was 191 nM. The molecule also gave a logP in data set [4] of 7.4. In data set [5], the kinetic solubility came out at 8 µg/mL (≈ 21 µM). For the same molecule, the intrinsic clearance (microsomal CLint) at 3 µM in data set [6] was found to be 22 µL/min/mg; in data set [7], 52 µL/min/mg.
Regarding `Cc1cc(O)ccc1NC(=O)c1cc(NC2CC2)ncn1`, the EC50 in data set [1] was greater than 20 µM.
For orientation: Papp means the rate of passage across a membrane or cell layer, normalised by area and donor concentration. Regarding `CCCN(CC1CC1)c1cc(C(=O)Nc2ccc3[nH]ncc3c2)ncn1`, the Activity in data set [8] came to 72%. The result in data set [9] and in data set [10] was inactive. The EC50 turned out to be 142 nM in [3] and 12 nM in data set [12]. Further, in [4], the logP amounted to 4.6. The solubility (kinetic) in [5] was determined as 11 µg/mL (≈ 31.4 µM). Besides, the microsomal CLint at 3 µM in [6] came out at 17 µL/min/mg; in [7] it was 57 µL/min/mg. Besides, the Papp in data set [11] was 8.5 ×10⁻⁶ cm/s.
In the case of `Cc1cc(O)ccc1NC(=O)c1cc(NC(C)(C)C)ncn1`, the EC50 in data set [1] is greater than 20 µM.
Regarding `O=C(Nc1ccc2[nH]ccc2c1)c1cc(NC2CCCCC2)ncn1`, the midpoint of the response in [1], the EC50, lay at 12.1 µM.
Broadly, the clearance is the rate of elimination divided by the concentration. In the case of `Cc1cc(O)ccc1NC(=O)c1cc(NC2CCCCC2)ncn1`, the figures for the EC50 in [2] and in data set [3] were greater than 30 µM and 258 nM, respectively. In [4], the logP was 4.1. Moreover, in data set [5], the solubility (kinetic) was greater than 32 µg/mL. In addition, the microsomal CLint at 3 µM in data set [6] was determined as 2 µL/min/mg; in data set [7] it was 18 µL/min/mg. Moreover, the clearance in data set [13] was 80.8 mL/min/kg. Also, in data set [11], the Papp came to 21.8 ×10⁻⁶ cm/s.
Take `O=C(Nc1ccc(F)cc1F)c1cc(NC2CCCCC2)ncn1`: in [1], the EC50 was greater than 20 µM.
In turn, `O=C(Nc1ccc(CO)cc1)c1cc(NC2CCCCC2)ncn1` yielded an EC50 in [1] greater than 20 µM.
On to `Cc1cc(S(N)(=O)=O)ccc1NC(=O)c1cc(N(CC2CC2)C2CCCCC2)ncn1`, for which the values for the EC50 in data set [1], in [2] and in data set [3] were 0.0016 µM, greater than 30 µM and 96 nM, respectively. This molecule gave a logP in data set [4] of 5.7. The kinetic solubility in data set [5] worked out at 1 µg/mL (≈ 2.25 µM). Besides, the microsomal CLint at 3 µM is 130 µL/min/mg in data set [6] and 14 µL/min/mg in data set [7].
As to `COc1ccc(NC(=O)c2cc(NC3CCCCC3)ncn2)cc1`, the EC50 in [1] is greater than 20 µM.
In turn, `CN(c1ccccc1)c1cc(C(=O)Nc2ccc(O)cc2)ncn1` came in with an EC50 in data set [1] greater than 20 µM.
With `CN(c1cc(C(=O)Nc2ccc3[nH]nnc3c2)ncn1)C1CCCCC1`, the response in [1] was half-maximal at 7.3 µM (EC50).
With `CNS(=O)(=O)c1ccc(NC(=O)c2cc(N(CC3CC3)C3CCCCC3)ncn2)c(C)c1`, the EC50 in data set [1] was 0.006 µM.
For orientation: logD means lipophilicity at a set pH, counting ionised and neutral species. As to `Cc1cc(CN2CC(C(=O)O)C2)ccc1NC(=O)c1cc(N(CC2CC2)C2CCCCC2)ncn1`, the EC50 in data set [1] was found to be 0.003 µM; in data set [2], 0.236 µM; in [3], 0.6 nM; in data set [12], 3 nM. This molecule also showed a logD in [14] greater than 2.7. Besides, the solubility (kinetic) in [5] was 22 µg/mL (≈ 46.1 µM). Further, the microsomal CLint at 3 µM in [6] and in [7] was less than 10 µL/min/mg each time. Further, the Papp in data set [11] was 2.4 ×10⁻⁶ cm/s.
In the case of `NS(=O)(=O)c1ccc(NC(=O)c2cc(NC3CCCCC3)ncn2)cc1`, the clearance in data set [13] was 5 mL/min/kg.
Molecule `Cc1cc2[nH]ncc2cc1NC(=O)c1cc(N(CC2CC2)C2CCCCC2)ncn1` gave a logP in data set [4] of 6.1. In [5], this molecule came in with a kinetic solubility of 5 µg/mL (≈ 12.4 µM). The microsomal CLint at 3 µM in data set [6] was less than 10 µL/min/mg; in [7], 26 µL/min/mg. Moreover, the Papp in data set [11] was 0.1 ×10⁻⁶ cm/s.
For `CCN(c1cc(C(=O)Nc2ccc(O)cc2C)ncn1)C1CCCCC1`, it took 0.405 µM to reach a half-maximal effect in [1] (EC50).
Consider `O=C(O)CCNCc1ccc(NC(=O)c2cc(N(CC3CC3)C3CCCCC3)ncn2)cc1`, for which the EC50 was determined as 1.09 µM in [2] and 6.3 nM in [3]. In data set [5], this molecule showed a solubility (kinetic) greater than 45 µg/mL. The microsomal CLint at 3 µM in data set [6] and in [7] was less than 10 µL/min/mg in each case. Besides, the Papp in data set [11] was determined as 0.8 ×10⁻⁶ cm/s.
In turn, `CCCN(CCC)c1cc(C(=O)Nc2ccc(O)cc2)ncn1` had an EC50 in [1] of 0.375 µM. For the same molecule, the kinetic solubility in data set [5] was 16 µg/mL (≈ 50.9 µM). Besides, the microsomal CLint at 3 µM in [6] came out at 4 µL/min/mg; in data set [7], 7 µL/min/mg. Also, in data set [11], the Papp was 21.4 ×10⁻⁶ cm/s.
In data set [2], `Cc1cc(S(N)(=O)=O)ccc1NC(=O)c1cc(NC2CCCCC2)ncn1` came in with an EC50 greater than 30 µM. Also, in data set [4], the logP is 3.6. For the same molecule, the kinetic solubility in [5] turned out to be 5 µg/mL (≈ 12.8 µM). In addition, the microsomal CLint at 3 µM in data set [6] worked out at 43 µL/min/mg; in [7], 15 µL/min/mg. Further, the Papp in data set [11] was found to be 12.5 ×10⁻⁶ cm/s.
`O=C(Nc1ccc(O)cc1)c1cc(NC2CCCCC2)ncn1` yielded an EC50 in [2] greater than 30 µM.
`Cc1cc(S(=O)(=O)NCCC(=O)O)ccc1NC(=O)c1cc(N(CC2CC2)C2CCCCC2)ncn1`: in data set [3], the EC50 came to 114 nM. Also, the kinetic solubility in [5] is greater than 51 µg/mL. Moreover, the microsomal CLint at 3 µM in [6] and in data set [7] was 25 µL/min/mg in each case. In data set [11], the Papp came to 2 ×10⁻⁶ cm/s.
